Experimental data reported in the supplement of paper PMC8671470.

Key:
Conditions in all cases: 72 h
[1] = tested on: myeloid leukemia patient primary cells Pat.10; assay: cell viability (% survival relative to DMSO control); higher = less cytotoxic
Summary of the method: (§1)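 Seventy compounds were pre-printed on 384-well plates at five tenfold concentrations between 1 and 10,000 nM, in duplicate. Thawed mononuclear cells purified by Ficoll from AML or CML patients were added at 10,000 cells/well in RPMI 1640 with 10% FBS for 72 h. Viability by CellTiter-Glo was normalised to DMSO and 10 μM proteasome-inhibitor wells. Where stated, area under the curve was taken from log-logistic fits made with the drc and PharmacoGx R packages, each fit having four parameters.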

[2] = tested on: myeloid leukemia patient primary cells Pat.11; assay: as above
Summary of the method: as §1

[3] = tested on: myeloid leukemia patient primary cells Pat.12; assay: as above
Summary of the method: as §1

[4] = tested on: myeloid leukemia patient primary cells Pat.13; assay: as above
Summary of the method: as §1

[5] = tested on: myeloid leukemia patient primary cells Pat.14; assay: as above
Summary of the method: as §1

[6] = tested on: myeloid leukemia patient primary cells Pat.15; assay: as above
Summary of the method: as §1

[7] = tested on: myeloid leukemia patient primary cells Pat.1; assay: as above
Summary of the method: as §1

[8] = tested on: myeloid leukemia patient primary cells Pat.2; assay: as above
Summary of the method: as §1

[9] = tested on: myeloid leukemia patient primary cells Pat.3; assay: as above
Summary of the method: as §1

[10] = tested on: myeloid leukemia patient primary cells Pat.4; assay: as above
Summary of the method: as §1

[11] = tested on: myeloid leukemia patient primary cells Pat.5; assay: as above
Summary of the method: as §1

[12] = tested on: myeloid leukemia patient primary cells Pat.6; assay: as above
Summary of the method: as §1

[13] = tested on: myeloid leukemia patient primary cells Pat.7; assay: as above
Summary of the method: as §1

[14] = tested on: myeloid leukemia patient primary cells Pat.8; assay: as above
Summary of the method: as §1

[15] = tested on: myeloid leukemia patient primary cells Pat.9; assay: as above
Summary of the method: as §1

[16] = tested on: myeloid leukemia patient primary cells Pat.10; assay: area under dose-response curve (viability, 1 nM-10 uM) (fraction (0-1)); higher = more sensitive
Procedure: (§2)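 AUC (0–1, higher = more sensitive) of the 5-point dose–response (1 nM–10 µM, 72 h, CellTiter-Glo) in primary AML/CML patient mononuclear cells. 0.030103 is the floor for inactive compounds.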

[17] = tested on: myeloid leukemia patient primary cells Pat.11; assay: as above
Procedure: as §2

[18] = tested on: myeloid leukemia patient primary cells Pat.12; assay: as above
Procedure: as §2

[19] = tested on: myeloid leukemia patient primary cells Pat.13; assay: as above
Procedure: as §2

[20] = tested on: myeloid leukemia patient primary cells Pat.14; assay: as above
Procedure: as §2

[21] = tested on: myeloid leukemia patient primary cells Pat.15; assay: as above
Procedure: as §2

[22] = tested on: myeloid leukemia patient primary cells Pat.1; assay: as above
Procedure: as §2

[23] = tested on: myeloid leukemia patient primary cells Pat.2; assay: as above
Procedure: as §2

[24] = tested on: myeloid leukemia patient primary cells Pat.3; assay: as above
Procedure: as §2

[25] = tested on: myeloid leukemia patient primary cells Pat.4; assay: as above
Procedure: as §2

[26] = tested on: myeloid leukemia patient primary cells Pat.5; assay: as above
Procedure: as §2

[27] = tested on: myeloid leukemia patient primary cells Pat.6; assay: as above
Procedure: as §2

[28] = tested on: myeloid leukemia patient primary cells Pat.7; assay: as above
Procedure: as §2

[29] = tested on: myeloid leukemia patient primary cells Pat.8; assay: as above
Procedure: as §2

[30] = tested on: myeloid leukemia patient primary cells Pat.9; assay: as above
Procedure: as §2

CC(C)c1onc(-c2c(Cl)cccc2Cl)c1COc1ccc(/C=C/c2cccc(C(=O)O)c2)c(Cl)c1 [GW 4064]
cell viability [%]
Conditions	1 nM	10 nM	100 nM	1000 nM	10000 nM
[1]	61.6	86.6	38.4	8.43	9.05
[2]	96.4	95.9	99.3	90.6	74.3
[3]	92.5	94.8	97.5	95.5	89.8
[4]	99.3	88.8	78.5	81.7	52.7
[5]	84.9	69.6	66	63.2	2.05
[6]	92.6	95.2	95.5	98	89.7
[7]	> 100	91.2	95.4	99.2	68.8
[8]	98.1	94.5	84.4	96.8	92.7
[9]	83.5	78.7	86.3	16.1	0.177
[10]	81.1	92	96.4	91.2	64
[11]	80.1	49.1	67.6	2.27	0.265
[12]	> 100	94.1	99.2	92.7	62.8
[13]	64.4	67.8	67.5	40.3	< 0
[14]	91.6	88.4	64	90.2	81.9
[15]	59.1	40.4	48.8	3.95	< 0

Conditions	area under dose-response curve
[16]	0.473
[17]	< 0.0301
[18]	< 0.0301
[19]	0.0666
[20]	0.18
[21]	< 0.0301
[22]	< 0.0301
[23]	< 0.0301
[24]	0.323
[25]	< 0.0301
[26]	0.413
[27]	0.0544
[28]	0.278
[29]	< 0.0301
[30]	0.539

CCn1c(=O)/c(=C2\Sc3ccccc3N2C)s/c1=C\c1cccc[n+]1CC.[Cl-] [MKT-077]
cell viability [%]
Conditions	1 nM	10 nM	100 nM	1000 nM	10000 nM
[1]	35.1	83.7	> 100	54.6	67.1
[2]	96.9	95.6	99.3	> 100	88.3
[3]	95.4	95.7	97	97.5	91.4
[4]	85.3	83.5	92.6	88.8	72.1
[5]	49.3	84.2	> 100	100	61.8
[6]	86.1	93.1	87.2	98.8	82.1
[7]	88.7	75.1	99.5	96.7	79.3
[8]	93.4	99.4	98.1	99.9	85.4
[9]	46.3	84.2	> 100	> 100	80.4
[10]	92.1	92.2	99.6	83.8	61.6
[11]	2.39	85	95.2	69.1	27.4
[12]	86.5	> 100	> 100	97.5	76.2
[13]	60.4	97.6	87.8	78.2	63.4
[14]	71.5	87.3	95.1	82.5	67.2
[15]	7.21	82.2	86.3	78.1	48

Conditions	area under dose-response curve
[17]	< 0.0301
[18]	< 0.0301
[19]	0.0334
[20]	< 0.0301
[21]	< 0.0301
[22]	< 0.0301
[23]	< 0.0301
[24]	< 0.0301
[26]	0.119
[27]	0.0306
[28]	0.0538
[29]	0.0466
[30]	0.0402

O=C(CCl)N(CCCNC(=O)C(F)(F)F)c1ccc([N+](=O)[O-])cc1 [ML-175]
cell viability [%]
Conditions	1 nM	10 nM	100 nM	1000 nM	10000 nM
[1]	81.5	93.1	17.1	15.7	5.41
[2]	95.5	97	86.2	67.7	1.51
[3]	96.2	98.2	80.4	58.4	1.48
[4]	92.9	88.6	71.6	62.1	3.76
[5]	87.8	82.6	29.4	51.2	2.44
[6]	95	80.2	86.1	75.6	1.52
[7]	85.7	78.3	67.8	72.8	< 0
[8]	94.8	93.7	89.3	82.8	4.31
[9]	96.1	96.2	23.6	46.1	0.554
[10]	97.6	79.3	65.7	42.1	1.37
[11]	99.9	51.6	< 0	2.01	< 0
[12]	97.1	94.4	70.2	61.2	1.29
[13]	> 100	89.4	11.6	43.6	50
[14]	87.1	89	85.1	65.8	0.0301
[15]	64.6	81.5	7.88	7.21	0.492

Conditions	area under dose-response curve
[16]	0.542
[17]	0.199
[18]	0.221
[19]	0.19
[20]	0.488
[21]	0.159
[22]	0.149
[23]	0.147
[24]	0.498
[25]	0.29
[26]	0.744
[27]	0.204
[28]	0.533
[29]	0.192
[30]	0.593
